From the NIST ThermoML archive (doi:10.1016/j.jct.2018.12.025)
± gives the expanded uncertainty stated by the source.

Assay: relative permittivity at various frequencies (dimensionless)
Settings: 96.5 kPa, Liquid, Frequency=1 MHz, Parallel plate capacitor

Which results are given for `O` [water]?
relative permittivity (298.15 K): 79.68 ± 3; relative permittivity (308.15 K): 75.51 ± 2.8; relative permittivity (318.15 K): 71.42 ± 2.7; relative permittivity (328.15 K): 68.44 ± 2.6; relative permittivity (338.15 K): 64.51 ± 2.4; relative permittivity (348.15 K): 60.78 ± 2.3
